Measured values: US11369595B2, “Use of tryptophan metabolites for treating muscle atrophy” (METABRAIN RESEARCH, priority 2016, dated 2022)

Experiments:
C2C12 muscle cells = experiment: Measurement of protein synthesis in C2C12 cells (radio-labeled leucine incorporation); type: cell-based; conditions: for effect on protein synthesis in C2C12 muscle cells: 150 min incubation, radio-labeled leucine, versus DMSO control
Description: The cells are counted and seeded at the density of 20 000 cells per well in a 24-well plate in DMEM medium containing glucose in a proportion of 4.5 g/l and supplemented with fetal calf serum (10%) and with antibiotics (penicillin and streptomycin). Forty-eight hours layer, the myoblasts are induced to differentiate by partial serum deprivation (2% instead of 10%) for 5 days. The cells are then placed in medium without glucose or leucine (Krebs medium) for 1 h at 37° C., then incubated for 150 min in the presence of the products to be tested (DMSO (control), kynurenic acid or anthranilic acid or quinolinic acid or picolinic acid or 3OH-kynurenine) or reference (IGF-1, 100 ng/ml) in serum-free DMEM medium containing 2.5 μCi/ml radio-labeled leucine. At the end of the incubation, the supernatants are removed and the cells are lysed in 0.1N NaOH solution for 30 min. The radioactivity is measured in the cell fraction and the total amount of proteins is determined by assaying according to the Lowry method. Each condition is evaluated at least with n=6; IGF-1, 100 ng/ml is our control for stimulating protein synthesis. The results are expressed in cpm/μg of proteins after 150 min of incubation or as a percentage relative to the control condition. The results are expressed as % of the control and a statistical test is carried out: Dunnett's or Dun test (*p<0.05, **p<0.01, ***p<0.001 versus control). The results obtained with kynurenic acid, anthranilic acid, quinolinic acid, picolinic acid and 3OH-kynurenin are represented in FIGS. 1 to 5.

loss of muscle mass = conditions: mice on a protein-poor diet, supplementation; cited from earlier work
[1] = system: muscle atrophy induced by immobilization; experiment: Muscle atrophy induced by immobilization in mice; type: in vivo; conditions: CD1 mice, 7 days immobilization, 3 mg/kg per day in the drinking water, compared with control group
Source text: Limb immobilization is known to induce skeletal muscle atrophy involving mechanisms linked to protein degradation, to a change in muscle fiber types, to oxidative stress or inflammatory mechanisms. Briefly, male 8-9-week-old CD1 mice were used in this study. The foot of the left hindlimb was immobilized for 7 days according to the procedure described by Caron et al. (2009), in the dorso-tibial flexion position, by means of a surgical staple. The other foot (right hindlimb) is used as a control. For the duration of the immobilization, one group of animals (n=12) received a treatment with kynurenic acid (3 mg/kg per day) in the drinking water. Another group of animals served as a control (n=16 animals). At the end of the 7 days of study, the animals were sacrificed in order to remove the Tibialis anterial muscle from the two hindlimbs. For each animal, the difference between the weight of the muscle of the immobilized limb and the free limb is calculated, then related back to the bodyweight. The results are expressed as weight loss of the immobilized limb relative to the control limb (in mg per g of body weight), and a statistical test is carried out: Student's test (*p<0.05, **p<0.01, ***p<0.001 versus control group).

[2] = system: myostatin gene expression in C2C12 muscle cells; experiment: Measurement of myostatin gene expression in C2C12 cells (RT-qPCR); type: cell-based; conditions: 6 hours of incubation, standardized to beta-actin
Description: The C2C12 myoblast cells (ATCC CRL-1772) are seeded in 24-well plates at the density of 30 000 cells per well and cultured in a DMEM medium containing glucose in a proportion of 4.5 g/l and supplemented with fetal calf serum (10%) and with antibiotics (penicillin and streptomycin). Forty-eight hours later, the myoblasts are induced to differentiate by partial serum deprivation (2% instead of 10%) for 5 days. The cells are then placed in a serum-free, glucose-depleted medium (DMEM containing 1 g/l of glucose) in the presence of the molecules to be tested (DMSO (control) or IGF-1 (100 ng/ml) or kynurenic acid) or of the references (IGF-1 at the concentration of 100 ng/ml) for 6 h. […] The samples analyzed all contain […] of cDNA, a qPCR buffer including the enzyme, the oligonucleotide mixture and the intercalating agent (sybergreen), and the pair of primers specific for the gene studied, strategically chosen between two exon sequences and at the final concentration of 200 nM. […] A fluorescence threshold is established by the program of the machine. […] It is this value which forms the basis for the calculations to relatively quantify the DNA. […] The primers used are given in table 1 below: At the end of the incubation, the expression of the myostatin gene is measured by RT-qPCR and standardized using the beta-actin housekeeping gene. […]

C2C12 muscle fibers = experiment: Evaluation of the diameter of the C2C12 muscle fibers; type: cell-based; conditions: incubation for 3 days, 100 μM
Description: The C2C12 myoblast cells (ATCC CRL-1772) are seeded in 8-well plates treated with glycerol, at the density of 10 000 cells per well and cultured in DMEM medium containing glucose in a proportion of 4.5 g/l and supplemented with fetal calf serum (10%) and with antibiotics (penicillin and streptomycin). Forty-eight hours layer, the myoblasts are induced to differentiate by partial serum deprivation (2% instead of 10%) for 3 days. The cells are then placed in a serum-free, glucose-depleted medium (DMEM containing 1 g/l of glucose) in the presence of the molecules to be tested (DMSO (control) or kynurenic acid) or the references (IGF-1 at the concentration of 10 ng/ml or dexamethasone at 10 μM) for 3 days. At the end of the culture, the cells are rinsed and fixed using a 2.5% glutaraldehyde/0.1% triton solution for 1 h at ambient temperature. The cell layer is covered with DAPI (fluorescent labeling of the cell nucleus). After storage in the dark for 16 h in the cold, the slides are observed under a fluorescence microscope (Carl Zeiss, AxioVert 200) and the images are analyzed using the Axiovision 4.1 software for measuring the diameter of the fibers. A representative image of each condition is shown. A statistical test is carried out: Dunnett's or Dun test (*p<0.05, **p<0.01, ***p<0.001 versus control). The results obtained with kynurenic acid are represented in FIG. 7.

Nc1c(O)cccc1C(=O)C[C@H](N)C(=O)O [3OH-kynurenine, reference compound]
effect on protein synthesis in C2C12 muscle cells (C2C12 muscle cells): no effect on protein synthesis

Nc1ccccc1C(=O)C[C@H](N)C(=O)O [L-kynurenine]
effect on loss of muscle mass (loss of muscle mass): varies according to the dose tested (beneficial or negative)

N[C@@H](Cc1c[nH]c2ccccc12)C(=O)O [TRP, Tryptophan]
effect on loss of muscle mass (loss of muscle mass): capable of reducing the loss of muscle mass

Nc1ccccc1C(=O)O [anthranilic acid]
effect on protein synthesis in C2C12 muscle cells (C2C12 muscle cells): significantly induce protein synthesis

O=C(O)c1cc(=O)c2ccccc2[nH]1 [kynurenic acid]
loss of muscle (Tibialis anterior) mass induced by immobilization [1]: significantly decreases the loss of muscle
myostatin gene expression [2]: significant dose-dependent inhibition
size (diameter) of the C2C12 muscle fibers (C2C12 muscle fibers): increase in the size of the C2C12 muscle fibers
effect on protein synthesis in C2C12 muscle cells (C2C12 muscle cells): significantly induce protein synthesis
dose dependence of stimulation of protein synthesis (C2C12 muscle cells; after 150 min of incubation): dose-dependent stimulation of protein synthesis

O=C(O)c1ccccn1 [picolinic acid]
effect on protein synthesis in C2C12 muscle cells (C2C12 muscle cells): significantly induce protein synthesis

O=C(O)c1cccnc1C(=O)O [quinolinic acid]
effect on protein synthesis in C2C12 muscle cells (C2C12 muscle cells): significantly induce protein synthesis
